The record followed here is US20080293771A1, “AZACYCLYLBENZAMIDE DERIVATIVES AS HISTAMINE-3 ANTAGONISTS” (Wyeth, priority 2007, published 2008).

Counter-ions that a name gives are not always drawn.

Take `CN(C(=O)c1ccc(-n2ncc3ccccc32)cc1)[C@@H]1CCN(C2CCC2)C1` (as salt: hydrochloride) [Example 65, N-[(3R)-1-cyclobutylpyrrolidin-3-yl]-4-(1H-indazol-1-yl)-N-methylbenzamide]: the melting point was in the range of 163 to 165 °C.

`CN(C(=O)c1ccc(-n2ncc3ccccc32)cc1)[C@@H]1CCN(C2CCCC2)C1` (as salt: hydrochloride) [Example 66, N-[(3R)-1-cyclopentylpyrrolidin-3-yl]-4-(1H-indazol-1-yl)-N-methylbenzamide] registered a melting point of 151 to 152 °C.

In the case of `CC(C)N1CCC(N(C)C(=O)c2ccc(-n3cc4ccccc4n3)cc2)CC1` (as salt: hydrochloride) [Example 69, 4-(2H-indazol-2-yl)-N-(1-isopropylpiperidin-4-yl)-N-methylbenzamide], the melting point lay in the range of 166 to 168 °C.

Consider `CN(C(=O)c1ccc(-n2cc3ccccc3n2)cc1)C1CCN(C2CCC2)CC1` (as salt: hydrochloride) [Example 70, N-(1-cyclobutylpiperidin-4-yl)-4-(2H-indazol-2-yl)-N-methylbenzamide], for which the melting point lay in the range of 273 to 275 °C.

`CN(C(=O)c1ccc(-n2cc3ccccc3n2)cc1)C1CCN(C2CCCC2)CC1` (as salt: hydrochloride) [Example 71, N-(1-cyclopentylpiperidin-4-yl)-4-(2H-indazol-2-yl)-N-methylbenzamide] had a melting point of 283 to 285 °C.

The compound `CC(C)N1CCC(N(C)C(=O)c2ccc(-n3ncc4ccccc43)cc2)CC1` (as salt: hydrochloride) [Example 72, 4-(1H-indazol-1-yl)-N-(1-isopropylpiperidin-4-yl)-N-methylbenzamide] showed a melting point of 151 to 162 °C.

`CN(C(=O)c1ccc(-n2ncc3ccccc32)cc1)C1CCN(C2CCC2)CC1` (as salt: hydrochloride) [Example 73, N-(1-cyclobutylpiperidin-4-yl)-4-(1H-indazol-1-yl)-N-methylbenzamide]: the melting point was 160 °C (dec.).

As for `CN(C(=O)c1ccc(-n2ncc3ccccc32)cc1)C1CCN(C2CCCC2)CC1` (as salt: hydrochloride) [Example 74, N-(1-cyclopentylpiperidin-4-yl)-4-(1H-indazol-1-yl)-N-methylbenzamide], the melting point was 240 °C (dec.).

`CN(C(=O)c1ccc(Cn2ncc3ccccc32)cc1)[C@@H]1CCNC1` (as salt: hydrochloride) [Example 75, (R)-4-((1H-indazol-1-yl)methyl)-N-methyl-N-(pyrrolidin-3yl)benzamide] returned a melting point of 255 to 256 °C.

Compound `CC(C)N1CC[C@@H](N(C)C(=O)c2ccc(Cn3ncc4ccccc43)cc2)C1` (as salt: hydrochloride) [Example 76, 4-(1H-indazol-1-ylmethyl)-N-[(3R)-1-isopropylpyrrolidin-3-yl]-N-methylbenzamide] gave a melting point of 156 to 158 °C.

The compound `CN(C(=O)c1ccc(Cn2ncc3ccccc32)cc1)[C@@H]1CCN(C2CCC2)C1` (as salt: hydrochloride) [Example 77, N-[(3R)-1-cyclobutylpyrrolidin-3-yl]-4-(1H-indazol-1-ylmethyl)-N-methylbenzamide] had a melting point of 105 to 106 °C.

Turning to `CN(C(=O)c1ccc(Cn2ncc3ccccc32)cc1)[C@@H]1CCN(C2CCCC2)C1` (as salt: hydrochloride) [Example 78, N-[(3R)-1-cyclopentylpyrrolidin-3-yl]-4-(1H-indazol-1-ylmethyl)-N-methylbenzamide], the melting point fell in the range of 98 to 99 °C.

As for `CC(C)N1CCC(N(C)C(=O)c2ccc(Cn3ncc4ccccc43)cc2)CC1` (as salt: hydrochloride) [Example 79, 4-(1H-indazol-1-ylmethyl)-N-(1-isopropylpiperidin-4-yl)-N-methylbenzamide], the melting point was 197 to 199 °C.

`CN(C(=O)c1ccc(Cn2ncc3ccccc32)cc1)C1CCN(C2CCC2)CC1` (as salt: hydrochloride) [Example 80, N-(1-cyclobutylpiperidin-4-yl)-4-(1H-indazol-1-ylmethyl)-N-methylbenzamide] came in with a melting point of 254 to 256 °C.

Compound `CN(C(=O)c1ccc(Cn2ncc3ccccc32)cc1)C1CCN(C2CCCC2)CC1` (as salt: hydrochloride) [Example 81, N-(1-cyclopentylpiperidin-4-yl)-4-(1H-indazol-1-ylmethyl)-N-methylbenzamide] displayed a melting point of 265 to 267 °C.

With `CC(C)N1CCC(N(C)C(=O)c2ccc(-n3cccn3)cc2)CC1` (as salt: hydrochloride) [Example 85, N-(1-isopropylpiperidin-4-yl)-N-methyl-4-(1H-pyrazol-1-yl)benzamide], the melting point lay in the range of 285 to 286 °C.

`CN(C(=O)c1ccc(-n2cccn2)cc1)C1CCN(C2CCC2)CC1` (as salt: hydrochloride) [Example 86, N-(1-cyclobutylpiperidin-4-yl)-N-methyl-4-(1H-pyrazol-1-yl)benzamide] displayed a melting point of 272 to 273 °C.

Regarding `CN(C(=O)c1ccc(-n2cccn2)cc1)C1CCN(C2CCCC2)CC1` (as salt: hydrochloride) [Example 87, N-(1-cyclopentylpiperidin-4-yl)-N-methyl-4-(1H-pyrazol-1-yl)benzamide], the melting point was 240 °C (dec.).

In turn, `CC(C)N1CCC(N(C)C(=O)c2ccc(Cn3cccn3)cc2)CC1` (as salt: hydrochloride) [Example 91, N-methyl-N-[1-(1-methylethyl)piperidin-4-yl]-4-(1H-pyrazol-1-ylmethyl)benzamide] registered a melting point of 213 to 215 °C.

In turn, `CN(C(=O)c1ccc(Cn2cccn2)cc1)C1CCN(C2CCC2)CC1` (as salt: hydrochloride) [Example 92, N-(1-cyclobutylpiperidin-4-yl)-N-methyl-4-(1H-pyrazol-1-ylmethyl)benzamide] gave a melting point of 235 to 237 °C.

`CN(C(=O)c1ccc(Cn2cccn2)cc1)C1CCN(C2CCCC2)CC1` (as salt: hydrochloride) [Example 93, N-(1-cyclopentylpiperidin-4-yl)-N-methyl-4-(1H-pyrazol-1-ylmethyl)benzamide]: the melting point was 250 °C (dec.).

In the case of `Cc1nc2ccccc2n1-c1ccc(C(=O)N(C)[C@@H]2CCN(C(C)C)C2)cc1F` (as salt: hydrochloride) [Example 103, 3-fluoro-N-methyl-4-(2-methyl-1H-benzimidazol-1-yl)-N-[(3R)-1-(1-methylethyl)pyrrolidin-3-yl]benzamide], the melting point fell in the range of 175 to 177 °C.

Compound `Cc1nc2ccccc2n1-c1ccc(C(=O)N(C)[C@@H]2CCN(C3CCC3)C2)cc1F` (as salt: hydrochloride) [Example 104, N-[(3R)-1-cyclobutylpyrrolidin-3-yl]-3-fluoro-N-methyl-4-(2-methyl-1H-benzimidazol-1-yl)benzamide] had a melting point of 164 to 166 °C.

Take `Cc1nc2ccccc2n1-c1ccc(C(=O)N(C)[C@@H]2CCN(C(C)C)C2)c(Cl)c1` (as salt: hydrochloride) [Example 105, 2-chloro-N-methyl-4-(2-methyl-1H-benzimidazol-1-yl)-N-[(3R)-1-(1-methylethyl)pyrrolidin-3-yl]benzamide]: the melting point was in the range of 204 to 205 °C.

The compound `Cc1nc2ccccc2n1-c1ccc(C(=O)N(C)[C@@H]2CCN(C3CCC3)C2)c(Cl)c1` (as salt: hydrochloride) [Example 106, 2-chloro-N-[(3R)-1-cyclobutylpyrrolidin-3-yl]-N-methyl-4-(2-methyl-1H-benzimidazol-1-yl)benzamide] gave a melting point of 207 to 209 °C.

Consider `Cc1cc(C(=O)N(C)[C@@H]2CCN(C(C)C)C2)ccc1-n1c(C)nc2ccccc21` (as salt: hydrochloride) [Example 107, N,3-dimethyl-4-(2-methyl-1H-benzimidazol-1-yl)-N-[(3R)-1-(1-methylethyl)pyrrolidin-3-yl]benzamide], for which the melting point is 183 to 185 °C.

The compound `Cc1cc(C(=O)N(C)[C@@H]2CCN(C3CCC3)C2)ccc1-n1c(C)nc2ccccc21` (as salt: hydrochloride) [Example 108, N-[(3R)-1-cyclobutylpyrrolidin-3-yl]-N,3-dimethyl-4-(2-methyl-1H-benzimidazol-1-yl)benzamide] gave a melting point of 164 to 166 °C.

`COc1cc(C(=O)N(C)[C@@H]2CCN(C(C)C)C2)ccc1-n1c(C)nc2ccccc21` (as salt: hydrochloride) [Example 109, 3-methoxy-N-methyl-4-(2-methyl-1H-benzimidazol-1-yl)-N-[(3R)-1-(1-methylethyl)pyrrolidin-3-yl]benzamide] showed a melting point of 168 to 170 °C.

For `COc1cc(C(=O)N(C)[C@@H]2CCN(C3CCC3)C2)ccc1-n1c(C)nc2ccccc21` (as salt: hydrochloride) [Example 110, N-[(3R)-1-cyclobutylpyrrolidin-3-yl]-3-methoxy-N-methyl-4-(2-methyl-1H-benzimidazol-1-yl)benzamide], the melting point fell in the range of 168 to 170 °C.

For the compound `COc1cc(-n2c(C)nc3ccccc32)ccc1C(=O)N(C)[C@@H]1CCN(C(C)C)C1` (as salt: hydrochloride) [Example 111, (R)—N-(1-isopropylpyrrolidin-3-yl)-2-methoxy-N-methyl-4-(2-methyl-1H-benzo[d]imidazol-1-yl)benzamide], the melting point is 193 to 195 °C.

The compound `COc1cc(-n2c(C)nc3ccccc32)ccc1C(=O)N(C)[C@@H]1CCN(C2CCC2)C1` (as salt: hydrochloride) [Example 112, (R)—N-(1-cyclobutylpyrrolidin-3-yl)-2-methoxy-N-methyl-4-(2-methyl-1H-benzo[d]imidazol-1-yl)benzamide] displayed a melting point of 202 to 204 °C.

In turn, `Cc1nc2ccccc2n1-c1ccc(C(=O)N(C)C2CCN(C(C)C)CC2)cc1F` (as salt: hydrochloride) [Example 119, 3-fluoro-N-methyl-4-(2-methyl-1H-benzimidazol-1-yl)-N-[1-(1-methylethyl)piperidin-4-yl]benzamide] registered a melting point of 279 to 281 °C.

With `Cc1nc2ccccc2n1-c1ccc(C(=O)N(C)C2CCN(C3CCCC3)CC2)cc1F` (as salt: hydrochloride) [Example 120, N-(1-cyclopentylpiperidin-4-yl)-3-fluoro-N-methyl-4-(2-methyl-1H-benzimidazol-1-yl)benzamide], the melting point is 250 °C (dec.).

One may read the melting point as the temperature of the solid-liquid transition.
